Measured values as given in US20230085307A1, “PYRIDAZINONE COMPOUND AND HERBICIDE” (NISSAN CHEMICAL CORPORATION, priority 2019, published 2023).

Experiments:
Italian ryegrass [1] = experiment: Test Example 4: herbicidal effect by soil treatment (Table 19, symbol K); type: in vivo, Italian ryegrass (Lolium multiflorum); conditions: for herbicidal effect on K: Italian ryegrass: amount of applied herbicide 320 g/ha
Procedure, shortened: (§1)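 Applied as a water-diluted emulsion, the compound was sprayed onto soil covering newly sown seeds. Evaluation came three weeks after application, in a greenhouse held at 25° C. to 30° C.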

chickweed = experiment: Test Example 4: herbicidal effect by soil treatment (Table 19, symbol P); type: in vivo, common chickweed (Stellaria media); conditions: for herbicidal effect on P: chickweed: amount of applied herbicide 320 g/ha
Procedure, shortened: as §1

barnyard grass = experiment: Test Example 3: herbicidal effect by foliage application, Wagner pot (Table 18, symbol H); type: in vivo, barnyard grass (Echinochloa crus-galli); conditions: for herbicidal effect on H (barnyard grass), rating 0-5: 320 g/ha; for herbicidal effect on H: barnyard grass: amount of applied herbicide 320 g/ha
Procedure, shortened: (§2)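 Plants were sown in alluvial soil held under 0.1–0.5 cm standing water and grown 14 days in a greenhouse at 25–30 °C. An emulsifiable formulation, water-diluted to the set dose, was then sprayed onto the foliage, and effects were scored three weeks later using previously defined criteria.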

wild oat = experiment: Test Example 5: herbicidal effect by foliage application, plastic box (Table 20, symbol I); type: in vivo, wild oat (Avena fatua); conditions: foliage application; for effect on wild oat (I): 320 g/ha, 3 weeks after application; for I: wild oat, herbicidal effect (criteria 0-5): AAH 320 g/ha, evaluated three weeks after application
Procedure, shortened: (§3)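 Sow seeds spot-wise in sterilized diluvial soil; cover with ~1.5 cm soil. Grow 14 days in greenhouse, 25° C. to 30° C. Spray foliage with emulsion diluted to predetermined amount. Rate effect after 3 weeks.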

rice flat sedge = experiment: Test Example 3: herbicidal effect by foliage application, Wagner pot (Table 18, symbol E); type: in vivo, rice flat sedge (Cyperus iria); conditions: for herbicidal effect on E (rice flat sedge), rating 0-5: 320 g/ha; for herbicidal effect on E: rice flat sedge: amount of applied herbicide 320 g/ha
Procedure, shortened: as §2

oval-leafed pondweed = experiment: Test Example 1: herbicidal activity, application before weed generation under submerged conditions (Table 16, symbol C); type: in vivo, oval-leafed pondweed (Monochoria vaginalis); conditions: 320 g/ha applied herbicide
Procedure, shortened: (§4)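 Submerged Wagner pots (alluvial soil, 4 cm water) sown with weed seeds and planted with 2.5-leaf rice seedlings; emulsifiable concentrate diluted in water applied to water surface on sowing day. Held in greenhouse at 25-30 °C; injury scored 0-5 by herbicidal rate after three weeks.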

Italian ryegrass [2] = experiment: Test Example 5: herbicidal effect by foliage application, plastic box (Table 20, symbol K); type: in vivo, Italian ryegrass (Lolium multiflorum); conditions: foliage application; for effect on Italian ryegrass (K): 320 g/ha, 3 weeks after application; for K: Italian ryegrass, herbicidal effect (criteria 0-5): AAH 320 g/ha, evaluated three weeks after application
Procedure, shortened: as §3

lambsquarters [3] = experiment: Test Example 4: herbicidal effect by soil treatment (Table 19, symbol O); type: in vivo, lambsquarters (Chenopodium album); conditions: for herbicidal effect on O: lambsquarters: amount of applied herbicide 320 g/ha
Procedure, shortened: as §1

velvetleaf = experiment: Test Example 5: herbicidal effect by foliage application, plastic box (Table 20, symbol M); type: in vivo, velvetleaf (Abutilon theophrasti); conditions: foliage application; for effect on velvetleaf (M): 320 g/ha, 3 weeks after application; for M: velvetleaf, herbicidal effect (criteria 0-5): AAH 320 g/ha, evaluated three weeks after application
Procedure, shortened: as §3

Japanese bulrush = experiment: Test Example 1: herbicidal activity, application before weed generation under submerged conditions (Table 16, symbol B); type: in vivo, Japanese bulrush (Schoenoplectus juncoides); conditions: 320 g/ha applied herbicide
Procedure, shortened: as §4

Chinese sprangletop = experiment: Test Example 3: herbicidal effect by foliage application, Wagner pot (Table 18, symbol D); type: in vivo, chinese sprangletop (Leptochloa chinensis); conditions: for herbicidal effect on D (Chinese sprangletop), rating 0-5: 320 g/ha; for herbicidal effect on D: Chinese sprangletop: amount of applied herbicide 320 g/ha
Procedure, shortened: as §2

blackgrass = experiment: Test Example 5: herbicidal effect by foliage application, plastic box (Table 20, symbol J); type: in vivo, blackgrass (Alopecurus myosuroides); conditions: foliage application; for effect on blackgrass (J): 320 g/ha, 3 weeks after application; for J: blackgrass, herbicidal effect (criteria 0-5): AAH 320 g/ha, evaluated three weeks after application
Procedure, shortened: as §3

lambsquarters [4] = experiment: Test Example 5: herbicidal effect by foliage application, plastic box (Table 20, symbol O); type: in vivo, lambsquarters (Chenopodium album); conditions: foliage application; for effect on lambsquarters (O): 320 g/ha, 3 weeks after application; for O: lambsquarters, herbicidal effect (criteria 0-5): AAH 320 g/ha, evaluated three weeks after application
Procedure, shortened: as §3

green foxtail = experiment: Test Example 5: herbicidal effect by foliage application, plastic box (Table 20, symbol G); type: in vivo, green foxtail (Setaria viridis); conditions: foliage application; for effect on green foxtail (G): 320 g/ha, 3 weeks after application; for G: green foxtail, herbicidal effect (criteria 0-5): AAH 320 g/ha, evaluated three weeks after application
Procedure, shortened: as §3

windgrass = experiment: Test Example 4: herbicidal effect by soil treatment (Table 19, symbol L); type: in vivo, windgrass (Apera spica-venti); conditions: for herbicidal effect on L: windgrass: amount of applied herbicide 320 g/ha
Procedure, shortened: as §1

late watergrass = experiment: Test Example 1: herbicidal activity, application before weed generation under submerged conditions (Table 16, symbol A); type: in vivo, late watergrass (Echinochloa oryzicola); conditions: 320 g/ha applied herbicide
Procedure, shortened: as §4

southern crabgrass = experiment: Test Example 5: herbicidal effect by foliage application, plastic box (Table 20, symbol F); type: in vivo, southern crabgrass (Digitaria ciliaris); conditions: foliage application; for effect on southern crabgrass (F): 320 g/ha, 3 weeks after application; for F: southern crabgrass, herbicidal effect (criteria 0-5): AAH 320 g/ha, evaluated three weeks after application
Procedure, shortened: as §3

| SMILES | herbicidal effect on H (barnyard grass), rating 0-5 (barnyard grass) | effect on wild oat (I) (wild oat) | herbicidal effect on E (rice flat sedge), rating 0-5 (rice flat sedge) | Herbicidal effect on C: oval-leafed pondweed (grade 0-5) (oval-leafed pondweed) | effect on Italian ryegrass (K) (Italian ryegrass [2]) | effect on velvetleaf (M) (velvetleaf) | Herbicidal effect on B: Japanese bulrush (grade 0-5) (Japanese bulrush) | herbicidal effect on D (Chinese sprangletop), rating 0-5 (Chinese sprangletop) | effect on blackgrass (J) (blackgrass) | effect on lambsquarters (O) (lambsquarters [4]) | effect on green foxtail (G) (green foxtail) | Herbicidal effect on A: late watergrass (grade 0-5) (late watergrass) | effect on southern crabgrass (F) (southern crabgrass) | herbicidal effect on K: Italian ryegrass (Italian ryegrass [1]) | herbicidal effect on P: chickweed (chickweed) | herbicidal effect on H: barnyard grass (barnyard grass) | I: wild oat, herbicidal effect (criteria 0-5) (wild oat) | herbicidal effect on E: rice flat sedge (rice flat sedge) | K: Italian ryegrass, herbicidal effect (criteria 0-5) (Italian ryegrass [2]) | herbicidal effect on O: lambsquarters (lambsquarters [3]) | other results |
| --- | --- | --- | --- | --- | --- | --- | --- | --- | --- | --- | --- | --- | --- | --- | --- | --- | --- | --- | --- | --- | --- |
| CCCC(=O)Oc1c(C)nn(C)c(=O)c1-c1c(-c2ccc(OCC)cc2)sc2ccc(F)cc12 [2-031] | 5 (Herbicidal rate of 90% or more (almost completely withered)) | 0 (Herbicidal rate of 5% or less (almost no effect)) | 4 (Herbicidal rate of 70% or more and less than 90%) | 4 (Herbicidal rate of 70% or more and less than 90%) | 0 (Herbicidal rate of 5% or less (almost no effect)) | 5 (Herbicidal rate of 90% or more (almost completely withered)) | 4 (Herbicidal rate of 70% or more and less than 90%) | 4 (Herbicidal rate of 70% or more and less than 90%) | 0 (Herbicidal rate of 5% or less (almost no effect)) | 5 (Herbicidal rate of 90% or more (almost completely withered)) | 2 (Herbicidal rate of 20% or more and less than 40%) | 3 (Herbicidal rate of 40% or more and less than 70%) | 0 (Herbicidal rate of 5% or less (almost no effect)) | – | – | – | – | – | – | – | herbicidal effect rating, K: Italian ryegrass (Italian ryegrass [1]; 320 g/ha): 0 (Herbicidal rate of 5% or less (almost no effect)); herbicidal effect rating, P: chickweed (chickweed; 320 g/ha): 1 (Herbicidal rate of 5% or more and less than 20%); herbicidal effect rating, O: lambsquarters (lambsquarters [3]; 320 g/ha): 4 (Herbicidal rate of 70% or more and less than 90%); herbicidal effect rating, L: windgrass (windgrass; 320 g/ha): 0 (Herbicidal rate of 5% or less (almost no effect)) |
| Cc1nn(C)c(=O)c(-c2c(-c3ccc(OCC(F)F)cc3)sc3ccccc23)c1O [1-203] | 5 (Herbicidal rate of 90% or more (almost completely withered)) | 0 (Herbicidal rate of 5% or less (almost no effect)) | 5 (Herbicidal rate of 90% or more (almost completely withered)) | 4 (Herbicidal rate of 70% or more and less than 90%) | 5 (Herbicidal rate of 90% or more (almost completely withered)) | 5 (Herbicidal rate of 90% or more (almost completely withered)) | 5 (Herbicidal rate of 90% or more (almost completely withered)) | 4 (Herbicidal rate of 70% or more and less than 90%) | 2 (Herbicidal rate of 20% or more and less than 40%) | 5 (Herbicidal rate of 90% or more (almost completely withered)) | 5 (Herbicidal rate of 90% or more (almost completely withered)) | 5 (Herbicidal rate of 90% or more (almost completely withered)) | 3 (Herbicidal rate of 40% or more and less than 70%) | – | – | – | – | – | – | – | K: Italian ryegrass, herbicidal effect rating (Italian ryegrass [1]; AAH 320 g/ha): 5 (Herbicidal rate of 90% or more (almost completely withered)); P: chickweed, herbicidal effect rating (chickweed; AAH 320 g/ha): 5 (Herbicidal rate of 90% or more (almost completely withered)); O: lambsquarters, herbicidal effect rating (lambsquarters [3]; AAH 320 g/ha): 5 (Herbicidal rate of 90% or more (almost completely withered)); L: windgrass, herbicidal effect rating (windgrass; AAH 320 g/ha): 0 (Herbicidal rate of 5% or less (almost no effect)) |
| C=C(C)C(=O)Oc1c(C)nn(C)c(=O)c1-c1c(-c2ccc(OC(F)F)cc2)sc2ccc(F)cc12 [2-281] | – | – | – | 4 (Herbicidal rate of 70% or more and less than 90%) | – | – | 5 (Herbicidal rate of 90% or more (almost completely withered)) | – | – | – | – | 5 (Herbicidal rate of 90% or more (almost completely withered)) | – | 5 (Herbicidal rate of 90% or more (almost completely withered)) | 4 (Herbicidal rate of 70% or more and less than 90%) | 5 (Herbicidal rate of 90% or more (almost completely withered)) | 4 (Herbicidal rate of 70% or more and less than 90%) | 5 (Herbicidal rate of 90% or more (almost completely withered)) | 5 (Herbicidal rate of 90% or more (almost completely withered)) | 5 (Herbicidal rate of 90% or more (almost completely withered)) | M: velvetleaf, herbicidal effect (criteria 0-5) (velvetleaf): 5 (Herbicidal rate of 90% or more (almost completely withered)); herbicidal effect on D: Chinese sprangletop (Chinese sprangletop): 3 (Herbicidal rate of 40% or more and less than 70%); J: blackgrass, herbicidal effect (criteria 0-5) (blackgrass): 4 (Herbicidal rate of 70% or more and less than 90%); O: lambsquarters, herbicidal effect (criteria 0-5) (lambsquarters [4]): 5 (Herbicidal rate of 90% or more (almost completely withered)); G: green foxtail, herbicidal effect (criteria 0-5) (green foxtail): 4 (Herbicidal rate of 70% or more and less than 90%); herbicidal effect on L: windgrass (windgrass): 3 (Herbicidal rate of 40% or more and less than 70%); F: southern crabgrass, herbicidal effect (criteria 0-5) (southern crabgrass): 4 (Herbicidal rate of 70% or more and less than 90%) |
| Cc1nn(C)c(=O)c(-c2c(-c3ccc(Cl)cc3F)sc3ccc(F)cc23)c1O [2-348] | – | – | – | 0 (Herbicidal rate of 5% or less (almost no effect)) | – | – | 3 (Herbicidal rate of 40% or more and less than 70%) | – | – | – | – | 2 (Herbicidal rate of 20% or more and less than 40%) | – | 2 (Herbicidal rate of 20% or more and less than 40%) | 3 (Herbicidal rate of 40% or more and less than 70%) | 5 (Herbicidal rate of 90% or more (almost completely withered)) | 5 (Herbicidal rate of 90% or more (almost completely withered)) | 5 (Herbicidal rate of 90% or more (almost completely withered)) | 4 (Herbicidal rate of 70% or more and less than 90%) | 5 (Herbicidal rate of 90% or more (almost completely withered)) | M: velvetleaf, herbicidal effect (criteria 0-5) (velvetleaf): 5 (Herbicidal rate of 90% or more (almost completely withered)); herbicidal effect on D: Chinese sprangletop (Chinese sprangletop): 5 (Herbicidal rate of 90% or more (almost completely withered)); J: blackgrass, herbicidal effect (criteria 0-5) (blackgrass): 4 (Herbicidal rate of 70% or more and less than 90%); O: lambsquarters, herbicidal effect (criteria 0-5) (lambsquarters [4]): 5 (Herbicidal rate of 90% or more (almost completely withered)); G: green foxtail, herbicidal effect (criteria 0-5) (green foxtail): 5 (Herbicidal rate of 90% or more (almost completely withered)); herbicidal effect on L: windgrass (windgrass): 0 (Herbicidal rate of 5% or less (almost no effect)); F: southern crabgrass, herbicidal effect (criteria 0-5) (southern crabgrass): 5 (Herbicidal rate of 90% or more (almost completely withered)) |
